The values below come from US9974760B2, “Compositions and methods for treating cancer” (Chemo-Enhanced LLC, priority 2011, dated 2018).

One assay deals with MIA-PaCa2 cells. In words: Cell death in MIA-PaCa2 pancreatic cancer cells. In kind it is cell-based. The protocol:
FIGS. 3A-3H show synergistic anti-tumor effects of C6-ceramide and gemcitabine in vivo and in vitro. SCID/Beige/Taconic nude male mice (22-25 g; 6-8 weeks old) were ear tagged and randomized into 4 different groups (Control, Ceramide, gemcitabine, Ceramide+gemcitabine) combining 5 mice each prior to inoculation subcutaneous (s.c.) with 2×10^6 L3.6 cells in a 0.1 ml volume into the internal surface of the right thigh. Treatment was started 4 days after L3.6 cell injection with thrice weekly (3×/wk) intraperitoneal (i.p.) injections of gemcitabine (two doses: 5.0 and 10.0 mg/ml) with or without C6-ceramide (10 mg/ml) for 2 weeks. Mouse survival (FIGS. 3A, 3B, and 3E) and tumor volume (in cm^3; FIGS. 3C and 3D) were recorded (FIG. 3E). […] Mitomycin C was always present in the media to prevent cell proliferation from occurring. The data represent the mean±SD of at least triplicate experiments. *P<0.05 versus group without C6-ceramide presents. The experiments were repeated at least three times and similar results were observed.
Cell viability was measured by the 3-[4m5-dimethylthylthiazol-2-y]-2.5 diphenyltetrazolium bromide (MTT) method, as described in Cao et al. (2009) Sci. Signal, 2:RA17. Briefly, the cells were collected and seeded in 96-well plate at a density of 2×10^5 cells/cm^2. Different seeding densities were optimized at the beginning of the experiments. […] The medium was subsequently aspirated from each well and 150 ul of DMSO (Sigma, St. Louis, Mo.) was added to dissolve formazan crystals and the absorbance of each well was obtained using a Dynatech MR5000 plate reader at a test wavelength of 490 nm with a reference wavelength of 630 nm.
The possible combination effect of C6-ceramide on gemcitabine-induced cytotoxicity (in vitro) and regression (in vivo) of the L3.6 pancreatic cancer cell was also tested according to the methods described in Examples 2 and 3. […] A synergistic anti-tumor effect of gemcitabine and C6-ceramide in multiple pancreatic cancer cells in vitro was also determined.

Assay [1] relates to L3.6 pancreatic cancer cells. Briefly: Cell viability / cell death (MTT) in L3.6 pancreatic cancer cells. In kind it is cell-based, human. The following applies: for cell death of L3.6 cells: 2.5 μg/ml C6-ceramide, 1.5 μg/ml taxol. The protocol: L3.6 pancreatic cancer cells, cultured either in the basic DMEM medium or with 10% FBS, were treated with the indicated doses of taxol in the presence or absence of C6-ceramide (10 μg/ml) for 48 hours and cell viability was detected by MTT assay (FIGS. 1A-1B). L3.6 cells, cultured either in basic DMEM medium or with 10% FBS, were treated with the indicated dose of C6-ceramide in the presence or absence of taxol (1.5 μg/ml) for 48 hours and cell viability was detected by MTT assay (FIGS. 1C-1D). Mitomycin C (10 μg/ml) was always present in the media to prevent cell proliferation from occurring. The data represents the mean±SD of at least triplicate experiments. *P<0.05 versus group without C6-ceramide presents (FIGS. 1A-1B). **P<0.05 versus group without taxol presents (FIGS. 1C-1D).
FIGS. 3A-3H show synergistic anti-tumor effects of C6-ceramide and gemcitabine in vivo and in vitro. SCID/Beige/Taconic nude male mice (22-25 g; 6-8 weeks old) were ear tagged and randomized into 4 different groups (Control, Ceramide, gemcitabine, Ceramide+gemcitabine) combining 5 mice each prior to inoculation subcutaneous (s.c.) with 2×10^6 L3.6 cells in a 0.1 ml volume into the internal surface of the right thigh. Treatment was started 4 days after L3.6 cell injection with thrice weekly (3×/wk) intraperitoneal (i.p.) injections of gemcitabine (two doses: 5.0 and 10.0 mg/ml) with or without C6-ceramide (10 mg/ml) for 2 weeks. Mouse survival (FIGS. 3A, 3B, and 3E) and tumor volume (in cm^3; FIGS. 3C and 3D) were recorded (FIG. 3E). Pancreatic cancer cell lines, including L3.6 cells (FIG. 3F), Panc-1 cells (FIG. 3G) and MIA-PaCa2 cells (MIA, FIG. 3H) were cultured in basic DMEM medium and were treated with gemcitabine (Gem, 1 μg/ml). Mitomycin C was always present in the media to prevent cell proliferation from occurring. The data represent the mean±SD of at least triplicate experiments. *P<0.05 versus group without C6-ceramide presents. The experiments were repeated at least three times and similar results were observed.
Pancreatic cancer cell lines L3.6 cells were left untreated or treated with gemcitabine (Gem, 1 μg/ml) or taxol (1.5 μg/ml) in the presence or absence of C6-ceramide (10 μg/ml) for 2, 4 and 6 hours, AKT/mTORC1 and ERK activation were detected by Western Blot using indicated antibodies (FIGS. 5A and 5C). p-AKT (S473) and p-ERK at 4 hour time intervals for each treatment quantified (FIGS. 5B and 5D). L3.6 cells were pretreated with various inhibitors including PI3K/AKT inhibitor LY 294002 (LY, 1 μM), mTORC1 inhibitor rapamycin (100 nM), MEK/ERK inhibitor U0126 (1 μg/ml) or gemcitabine (1 μg/ml) for 48 hours, cell death was detected 48 hours later (FIG. 5E). The effects of the various inhibitors described above on AKT/mTORC1 and ERK activation were also detected by Western Blots using commercial available antibodies (FIG. 5F). *P<0.05 versus group without C6-ceramide presents. The experiments were repeated at least three times and similar results were observed.
Cell viability was measured by the 3-[4m5-dimethylthylthiazol-2-y]-2.5 diphenyltetrazolium bromide (MTT) method, as described in Cao et al. (2009) Sci. Signal, 2:RA17. Briefly, the cells were collected and seeded in 96-well plate at a density of 2×10^5 cells/cm^2. Different seeding densities were optimized at the beginning of the experiments. After overnight incubation cells were exposed to fresh medium containing indicated reagents at 37° C. After incubation for different time periods, 20 ul of MTT tetrazolium (Sigma, St. Louis, Mo.) salt dissolved in Hank's balanced solution at a concentration of 5 mg/ml was added to each well and incubated in a CO2 incubator for an additional 4 hours. The medium was subsequently aspirated from each well and 150 ul of DMSO (Sigma, St. Louis, Mo.) was added to dissolve formazan crystals and the absorbance of each well was obtained using a Dynatech MR5000 plate reader at a test wavelength of 490 nm with a reference wavelength of 630 nm. […]

The structures appear in SMILES notation.

With `CCCCCCCCCCCCC/C=C/[C@@H](O)[C@H](CO)NC(=O)CCCCC` [C6-ceramide, N-hexanoyl-D-sphingosine], the sensitization to cetuximab result in the assay with MIA-PaCa2 cells (MIA PaCa-2, activating KRAS mutation) is listed as “markedly sensitized”. For the same compound, in the assay on MIA-PaCa2 cells (MIA cells, gemcitabine 1.5 μg/ml), the cancer cell death result was “moderate effect”. Besides, the sensitization to cetuximab result in assay [1] (L3.6 cells) is “markedly sensitized”. Further, the “enhancement of paclitaxel induced cell death” value in assay [1] (L3.6 cells, dose dependent manner) is “dramatically enhanced”. In assay [1] (basic DMEM medium, MTT), the “L3.6 cell death, agent alone” value is reported as “limited effects”. In assay [1] (cultured in 10% FBS), the L3.6 cell death result is listed as “neither taxol or C6-ceramide alone had any meaningful effects” and the “cell death of L3.6 cells” value is reported as “neither of these two alone had any measurable effect”.

Turning to `CC(=O)O[C@H]1C(=O)[C@@]2(C)[C@H]([C@H](OC(=O)c3ccccc3)[C@]3(O)C[C@H](OC(=O)[C@H](O)[C@@H](NC(=O)c4ccccc4)c4ccccc4)C(C)=C1C3(C)C)[C@]1(OC(C)=O)CO[C@@H]1C[C@@H]2O` [paclitaxel], in assay [1] (basic DMEM medium, MTT, 48 hours, paclitaxel 1.5 μg/ml alone or combined with C6-ceramide), the L3.6 cell death result is on record as “less than 5%”. Besides, in assay [1] (cultured in 10% FBS), the L3.6 cell death result is “neither taxol or C6-ceramide alone had any meaningful effects” and the “cell death of L3.6 cells” value is “neither of these two alone had any measurable effect”.
